Results: ChEMBL document CHEMBL1146310, “Amplification of DNA-binding affinities of protoberberine alkaloids by appended polyamines” (Bioorg Med Chem Lett, 2007)

Test system: DNA
Assay: Binding affinity to calf thymus DNA
Type: nucleic-acid assay
Conditions: Bos taurus

Row | Compound | Kapp
1 | COc1cc2c(cc1OCCCN)CC[n+]1cc3c(OCCCN)c(OC)ccc3cc1-2 | 2.81 10^5/M
2 | COc1cc2c(cc1OC)-c1cc3ccc(OC)c(OC)c3c[n+]1CC2 | 8.72 10^3/M
3 | COc1cc2c(cc1OCCCNC(=O)C(N)CCCCN)CC[n+]1cc3c(OCCCNC(=O)C(N)CCCCN)c(OC)ccc3cc1-2 (centres undefined) | 1.08 10^7/M
4 | COc1cc2c(cc1OCCCNC(=O)C(N)CCCCNC(=O)C(N)CCCCN)CC[n+]1cc3c(OCCCNC(=O)C(N)CCCCNC(=O)C(N)CCCCN)c(OC)ccc3cc1-2 (centres undefined) | 1.15 10^7/M
